Data set [1] relates to HIV. Put plainly: microbe, parasite or virus in culture. The class given is cell-based. To be noted: for EC50: Human immunodeficiency virus 1, A549.
A short description of data set [2]: in vitro. Conditions: human.
Data set [3] has as its system H5N1 virus. Put plainly: microbe, parasite or virus in culture. The class given is cell-based, H5N1 influenza virus. Conditions: Influenza A virus, read-out: % Inhibition against H5N1 virus; for inhibition at 0.05 µg/mL: H5N1, A549, 50 ng/mL; for inhibition at 0.25 µg/mL: H5N1, A549, 250 ng/mL; for inhibition at 1 µg/mL: H5N1, A549, 1000 ng/mL; for inhibition at 5 µg/mL: H5N1, A549, 5000 ng/mL.

Structures are written as SMILES.

From patent publication US11638713B2, “Patentiflorin A analogs as antiviral agents” (priority 2019, dated 2023) come the findings set out here.

Consider `COc1cc2c(-c3cccnc3)c3c(c(-c4ccc5c(c4)OCO5)c2cc1OC)C(=O)OC3` [Compound 19i], for which the EC50 – broadly, the concentration giving half of the maximal effect – in data set [1] was 877 nM. In data set [2] (CC50 (nM)), this compound showed a CC50 of 38400 nM.
Regarding `COc1cc2c(OC3O[C@H](C)[C@@H](O)[C@H](OC(C)=O)[C@H]3OC(C)=O)c3c(c(-c4ccc5c(c4)OCO5)c2cc1OC)C(=O)OC3` (stereo partly drawn) [Compound 27bf, 2″,3″-Diacetyl-7-O-β-D-patentiflorin A], the EC50 in data set [1] turned out to be 1.17 nM. In addition, the CC50 in data set [2] (CC50 (nM)) was 308 nM.
The corresponding values for `COc1cc2c(OC3O[C@H](C)[C@@H](OC(C)=O)[C@H](O)[C@H]3OC(C)=O)c3c(c(-c4ccc5c(c4)OCO5)c2cc1OC)C(=O)OC3` (stereo partly drawn) [Compound 27be, 2″,4″-Diacetyl-7-O-β-D-patentiflorin A] are 1.96 nM and 1670 nM.
The compound `COc1cc2c(OCC(C)(C)O)c3c(c(-c4ccc5c(c4)OCO5)c2cc1OC)C(=O)OC3` [Compound 15b] showed a 50% effective concentration (EC50) in data set [1] of 15.5 nM. In data set [2] (CC50 (nM)), the CC50 is 1330 nM.
In data set [1], `COc1cc2c(-c3ccncc3)c3c(c(-c4ccc5c(c4)OCO5)c2cc1OC)C(=O)OC3` [Compound 19c] showed a 50% effective concentration (EC50) of 88.9 nM. Also, in data set [2] (CC50 (nM)), the CC50 was 1670 nM.
The corresponding values for `C=CCOC(=O)O[C@H]1[C@H](O)[C@@H](OC(=O)OCC=C)C(Oc2c3c(c(-c4ccc5c(c4)OCO5)c4cc(OC)c(OC)cc24)C(=O)OC3)O[C@@H]1C` (stereo partly drawn) [Compound 29b, 2″,4″-O-diallyl oxycarbonyl-7-O-β-D-patentiflorin A] are 4.7 nM and 187 nM.
For `COc1cc2c(OC3O[C@H](C)[C@@H](O)[C@H](OC(=O)c4ccccc4)[C@H]3O)c3c(c(-c4ccc5c(c4)OCO5)c2cc1OC)C(=O)OC3` (stereo partly drawn) [Compound 31d, 3″-O-benzoyl-7-O-β-D-patentiflorin A] the same measures were 1.36 nM and greater than 63 nM.
`COc1cc2c(OC(C)=O)c3c(c(-c4ccc5c(c4)OCO5)c2cc1OC)C(=O)OC3` [Compound 16] yielded a CC50 in data set [2] (CC50 (nM)) of 3400 nM.
On to `COc1cc2c(OC3O[C@H](C)[C@@H](O)[C@H](OC(=O)c4ccc(Cl)cc4)[C@H]3O)c3c(c(-c4ccc5c(c4)OCO5)c2cc1OC)C(=O)OC3` (stereo partly drawn) [Compound 31h, 3″-O-p-chlorobenzoyl-7-O-β-D-patentiflorin A], for which, in data set [3], the inhibition – broadly, the percentage by which the read-out fell short of the control – at 0.05 µg/mL was 94.6% and the inhibition at 0.25 µg/mL came out at 97.6%. In data set [2] (CC50 (nM)), the CC50 worked out at 336 nM.
Consider `COc1cc2c(OC3O[C@H](C)[C@@H](O)[C@H](OC(=O)c4cnccn4)[C@H]3O)c3c(c(-c4ccc5c(c4)OCO5)c2cc1OC)C(=O)OC3` (stereo partly drawn) [Compound 31i, 3″-O-pyrazinecarbonyl-7-O-β-D-patentiflorin A], for which, in data set [1], the “anti-HIV activity in terms of SI values” is on record as “much more improved anti-HIV activity”.
Compound `COc1cc2c(-c3cccs3)c3c(c(-c4ccc5c(c4)OCO5)c2cc1OC)C(=O)OC3` [Compound 19h] gave an EC50 in data set [1] of 270 nM. For the same compound, the CC50 in data set [2] (CC50 (nM)) was determined as 2390 nM.
In turn, `COc1cc2c(-c3ccc4c(c3)OCO4)c3c(c(C(C)O)c2cc1OC)COC3=O` (stereo not drawn) [Compound 20] had an EC50 in data set [1] of 21.7 nM. Further, the CC50 in data set [2] (CC50 (nM)) amounted to 389 nM.
Turning to `C#CCOc1c2c(c(-c3ccc4c(c3)OCO4)c3cc(OC)c(OC)cc13)C(=O)OC2` [Compound 17c], in data set [1], the “anti-HIV activity in terms of SI values” is on record as “much more improved anti-HIV activity” and the response was half-maximal at 4.8 nM (EC50). The CC50 in data set [2] (CC50 (nM)) is 890 nM.
Compound `COc1cc2c(-c3ccco3)c3c(c(-c4ccc5c(c4)OCO5)c2cc1OC)C(=O)OC3` [Compound 19k] displayed an EC50 in data set [1] of 60.1 nM. Further, the CC50 in data set [2] (CC50 (nM)) stood at 1060 nM.
The corresponding values for `COc1cc2c(OS(=O)(=O)C(F)(F)F)c3c(c(-c4ccc5c(c4)OCO5)c2cc1OC)C(=O)OC3` [Compound 18] are 488 nM and 1360 nM.
The corresponding values for `COc1cc2c(-c3ccc4c(c3)OCO4)c3c(c(N4CCOCC4)c2cc1OC)COC3=O` [Compound 19m] are 88.6 nM and 1500 nM.
Consider `COc1cc2c(OC3O[C@H](C)[C@@H](O)[C@H](OC(=O)C(Cl)(Cl)Cl)[C@H]3O)c3c(c(-c4ccc5c(c4)OCO5)c2cc1OC)C(=O)OC3` (stereo partly drawn) [Compound 31k, 3″-O-trichloroacetyl-7-O-β-D-patentiflorin A], for which, in data set [3], the inhibition at 0.05 µg/mL stood at 86% and the inhibition at 0.25 µg/mL worked out at 95.7%. The compound also displayed a CC50 in data set [2] (CC50 (nM)) of 508 nM.
As for `COc1cc2c(OC3OC[C@@H](O)[C@H](O)[C@H]3O)c3c(c(-c4ccc5c(c4)OCO5)c2cc1OC)C(=O)OC3` (stereo partly drawn) [Compound 26a, 7β-D-xylosyloxydiphyllin], in data set [3], the inhibition at 1 µg/mL was 93.6% and the inhibition at 5 µg/mL is 97.8%. In data set [2] (CC50 (nM)), this compound displayed a CC50 of 6220 nM.
Turning to `CC(=O)O[C@H]1C(=O)[C@@]2(C)[C@H]([C@H](OC(=O)c3ccccc3)[C@]3(O)C[C@H](OC(=O)[C@H](O)[C@@H](NC(=O)c4ccccc4)c4ccccc4)C(C)=C1C3(C)C)[C@]1(OC(C)=O)CO[C@@H]1C[C@@H]2O` [taxol, reference compound], the CC50 in data set [2] (CC50 against the host cell line A549) stood at 2.99 nM.
Turning to `COc1cc2c(OC3O[C@@H](C)[C@@H](O)[C@@H](O)[C@@H]3O)c3c(c(-c4ccc5c(c4)OCO5)c2cc1OC)C(=O)OC3` (stereo partly drawn) [Compound 26d, 7-O-β-L-fucopyranosyldiphyllin], in data set [1], the “anti-HIV activity in terms of SI values” is “much more improved anti-HIV activity” and a half-maximal response (EC50) required 42.3 nM. The CC50 in data set [2] (CC50 (nM)) is greater than 9500 nM.
Compound `COc1cc2c(OC3O[C@H](C)[C@@H](O)[C@H](OC(=O)c4cc([N+](=O)[O-])cc([N+](=O)[O-])c4)[C@H]3O)c3c(c(-c4ccc5c(c4)OCO5)c2cc1OC)C(=O)OC3` (stereo partly drawn) [Compound 31b, 3″-O-(3,5-dinitrobenzoyl)-7-O-β-D-patentiflorin A] gave an EC50 in data set [1] of 13.4 nM. In data set [2] (CC50 (nM)), this compound gave a CC50 of 684 nM.
For `COc1cc2c(OC3OC[C@H](O)[C@H](O)[C@H]3O)c3c(c(-c4ccc5c(c4)OCO5)c2cc1OC)C(=O)OC3` (stereo partly drawn) [Compound 26c, 7-O-α-L-arabinosyldiphyllin], the CC50 in data set [2] (CC50 (nM)) is greater than 9760 nM.
As to `CCCC(=O)O[C@H]1[C@H](O)[C@@H](C)OC(Oc2c3c(c(-c4ccc5c(c4)OCO5)c4cc(OC)c(OC)cc24)C(=O)OC3)[C@@H]1O` (stereo partly drawn) [Compound 31c, 3″-O-butyryl-7-O-β-D-patentiflorin A], in data set [1], the “anti-HIV activity in terms of SI values” was “much more improved anti-HIV activity” and a half-maximal response (EC50) required 0.03 nM. In data set [2] (CC50 (nM)), this compound gave a CC50 of 13.4 nM.
For `COc1cc2c(OC3OC[C@@H](O)[C@H](OC(C)=O)[C@H]3OC(C)=O)c3c(c(-c4ccc5c(c4)OCO5)c2cc1OC)C(=O)OC3` (stereo partly drawn) [Compound 27af, 2″,3″-Diacetyl-7-O-β-D-xylosyldiphyllin], the CC50 in data set [2] (CC50 (nM)) worked out at 2250 nM.
Same read-out and setting: then `COc1cc2c(OC3O[C@H](C)[C@@H](O)[C@H](OC(=O)N(C)C)[C@H]3O)c3c(c(-c4ccc5c(c4)OCO5)c2cc1OC)C(=O)OC3` (stereo partly drawn) [Compound 31f, 3″-O-dimethylcarbamyl-7-O-β-D-patentiflorin A], with 3.74 nM.
With `COc1cc2c(C3=CCN(C(=O)OC(C)(C)C)CC3)c3c(c(-c4ccc5c(c4)OCO5)c2cc1OC)C(=O)OC3` [Compound 19l], a half-maximal response in data set [1] (EC50) required 75.9 nM. The CC50 in data set [2] (CC50 (nM)) came to 4190 nM.
The corresponding values for `COc1cc2c(OCC(=O)O)c3c(c(-c4ccc5c(c4)OCO5)c2cc1OC)C(=O)OC3` [Compound 13] are 23100 nM and greater than 114000 nM.
As for `COc1cc2c(OC3O[C@H](C)[C@@H](OC(C)=O)[C@H](OC(C)=O)[C@H]3OC(C)=O)c3c(c(-c4ccc5c(c4)OCO5)c2cc1OC)C(=O)OC3` (stereo partly drawn) [Compound 25b, Peracetylated Patentiflorin A], the CC50 in data set [2] (CC50 (nM)) worked out at 259 nM.
Take `COc1cc2c(Nc3ccc(C(F)(F)F)cc3)c3c(c(-c4ccc5c(c4)OCO5)c2cc1OC)C(=O)OC3` [Compound 19e]: the midpoint of the response in data set [1], the EC50, lay at 212 nM. The compound further gave a CC50 in data set [2] (CC50 (nM)) greater than 9550 nM.
The corresponding values for `COc1cc2c(C)c3c(c(-c4ccc5c(c4)OCO5)c2cc1OC)C(=O)OC3` [Compound 19b] are 6.1 nM and 77.3 nM.
`COc1cc2c(OC3O[C@H](C)[C@@H](OC(C)=O)[C@H](O)[C@H]3O)c3c(c(-c4ccc5c(c4)OCO5)c2cc1OC)C(=O)OC3` (stereo partly drawn) [Compound 27ba, 4″-Acetyl-7-O-β-D-patentiflorin A] gave an EC50 in data set [1] of 8.47 nM. The same compound registered a CC50 in data set [2] (CC50 (nM)) of 1160 nM.
For `COc1cc2c(Nc3ccccc3)c3c(c(-c4ccc5c(c4)OCO5)c2cc1OC)C(=O)OC3` [Compound 19f] the same measures were 976 nM and 4510 nM.
As to `COc1cc2c(OC3OC[C@@H](OC(C)=O)[C@H](OC(C)=O)[C@H]3O)c3c(c(-c4ccc5c(c4)OCO5)c2cc1OC)C(=O)OC3` (stereo partly drawn) [Compound 27ad, 3″, 4″-Diacetyl-7-O-β-D-xylosyldiphyllin], the CC50 in data set [2] (CC50 (nM)) stood at 783 nM.
`CCc1c2c(c(-c3ccc4c(c3)OCO4)c3cc(OC)c(OC)cc13)C(=O)OC2` [Compound 19g] showed an EC50 in data set [1] of 19.3 nM. Besides, in data set [2] (CC50 (nM)), the CC50 amounted to 196 nM.
On to `COc1cc2c(OC3OC[C@@H](O)[C@H](OC(C)=O)[C@H]3O)c3c(c(-c4ccc5c(c4)OCO5)c2cc1OC)C(=O)OC3` (stereo partly drawn) [Compound 27ab, 3″-Acetyl-7-O-β-D-xylosyldiphyllin], for which, in data set [3], the inhibition at 1 µg/mL turned out to be 96.9% and the inhibition at 5 µg/mL is 97.8%. For the same compound, the CC50 in data set [2] (CC50 (nM)) is 2760 nM.
Turning to `COc1cc2c(OC(=O)c3ccc(F)cc3)c3c(c(-c4ccc5c(c4)OCO5)c2cc1OC)C(=O)OC3` [Compound 17g], it took 79.9 nM to reach a half-maximal effect in data set [1] (EC50). The same compound had a CC50 in data set [2] (CC50 (nM)) of 1320 nM.
The corresponding values for `COc1cc2c(NC(C)=O)c3c(c(-c4ccc5c(c4)OCO5)c2cc1OC)C(=O)OC3` [Compound 24] are 88.9 nM and greater than 11900 nM.
Regarding `COc1cc2c(OC3OC[C@@H](OC(C)=O)[C@H](O)[C@H]3OC(C)=O)c3c(c(-c4ccc5c(c4)OCO5)c2cc1OC)C(=O)OC3` (stereo partly drawn) [Compound 27ae, 2″,4″-Diacetyl-7-O-β-D-xylosyldiphyllin], the CC50 in data set [2] (CC50 (nM)) was determined as 2590 nM.
On the same count and under the same terms, to `COc1cc2c(OC3OC[C@@H](O)[C@H](O)[C@H]3OC(C)=O)c3c(c(-c4ccc5c(c4)OCO5)c2cc1OC)C(=O)OC3` (stereo partly drawn) [Compound 27ac] belongs 2940 nM.
